Literature values, collected in US4650664A (Dr. Karl Thomae GmbH, priority 1982, dated 1987).

Details: human

For `OCCN(CCO)c1nc(N2CCCCC2)c2nc(N(CCO)CCO)ncc2n1` [Mopidamol, 2,6-bis-(diethanolamino)-4-piperidinopyrimido[5,4-d]pyrimidine], the “Excretion in the urine” value is listed as “only excreted in the urine to a very small extent”.
